These results are taken from patent publication US20260240878A1, “PTP1B/TC-PTP DUAL INHIBITORS AND PROTEIN DEGRADERS” (Purdue Research Foundation, priority 2023, published 2026).

*1 amine or outer side, *2 acyl side, *3 side chain or, on linkers, in order; H or OH if unused. Where a SMILES comes first, the peptide text is derived from it. [ ]: non-standard residue; d: D form. The star is where a group is joined. NHBn(4-(4-Me-thiazol-5-yl)) = Cc1ncsc1-c1ccc(CN*)cc1; F2Pmp = N[C@@H](Cc1ccc(C(F)(F)P(=O)(O)O)cc1)C(=O)O; Phenylacetyl(4-OH,3-OMe) = COc1cc(CC(=O)*)ccc1O; Benzoyl(3-Br,4-Me) = Cc1ccc(C(=O)*)cc1Br; NH(CH2)9CO = O=C(CCCCCCCCCN[*:1])[*:2]; Hyp = O=C(O)[C@@H]1C[C@@H](O)CN1; X3 = O=C(CCC1CCN([*:1])CC1)[*:2]; dHyp = O=C(O)[C@H]1C[C@H](O)CN1; dTle = CC(C)(C)[C@@H](N)C(=O)O; Tle = CC(C)(C)[C@H](N)C(=O)O; Ahp = NCCCCCCC(=O)O; Ava = NCCCCC(=O)O

In assay [1] the target is T1, TC-PTP (Homo sapiens, UniProt P17706).
T1 sequence (P17706 1-415): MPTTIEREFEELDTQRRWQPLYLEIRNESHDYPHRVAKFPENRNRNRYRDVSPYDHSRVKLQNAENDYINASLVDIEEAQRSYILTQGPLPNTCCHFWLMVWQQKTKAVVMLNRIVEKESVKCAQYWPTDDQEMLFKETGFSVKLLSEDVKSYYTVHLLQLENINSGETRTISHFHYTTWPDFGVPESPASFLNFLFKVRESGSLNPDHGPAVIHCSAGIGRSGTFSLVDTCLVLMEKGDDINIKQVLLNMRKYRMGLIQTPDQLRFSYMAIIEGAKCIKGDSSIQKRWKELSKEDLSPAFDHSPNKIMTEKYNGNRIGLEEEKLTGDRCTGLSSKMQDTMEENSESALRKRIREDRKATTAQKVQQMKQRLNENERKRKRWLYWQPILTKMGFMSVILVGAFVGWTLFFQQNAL
Nature of the assay: PTP activity assay with pNPP substrate (IC50, Ki, mode of inhibition). The class given is biochemical. The settings on record: for IC50: pNPP 2 mM, pH 7.0, 25° C., read-out: IC50, nM TC-PTP. As to the method:
(§1) PTP activity was assayed using p-nitrophenyl phosphate (pNPP) as a substrate in DMG buffer (50 mM DMG. pH 7.0, 1 mM EDTA, 150 mM NaCl, 2 mM DTT, 0.1 mg/mL BSA) at 25° C. The assays were performed in 96-well plates. Normally, to determine the IC50 values, the reaction was initiated by the addition of enzyme (for PTP1B and TCPTP, the final concentration was 0.4 nM, for other PTPs, the final concentration was 10 nM) to a reaction mixture (0.2 mL) containing 2 mM (Km for the substrate) pNPP with various concentrations of inhibitors (see FIG. 1). The reaction rate was measured using a SpectraMax Plus 384 Microplate Spectrophotometer (Molecular Devices). Data were fitted using SigmaPlot Enzyme Kinetics Module (Systat Software, Inc.). To determine the mode of inhibition, the reactions were initiated by the addition of enzyme (final concentration for TC-PTP and PTP1B was 0.4 nM) to the reaction mixtures (0.2 mL) containing various concentrations of pNPP with different concentrations of the inhibitor. Data were fitted using SigmaPlot Enzyme Kinetics Module (Systat Software. Inc.).

The target of assay [2] is T2, PTP1B (Homo sapiens, UniProt P18031).
T2 sequence (P18031 1-435): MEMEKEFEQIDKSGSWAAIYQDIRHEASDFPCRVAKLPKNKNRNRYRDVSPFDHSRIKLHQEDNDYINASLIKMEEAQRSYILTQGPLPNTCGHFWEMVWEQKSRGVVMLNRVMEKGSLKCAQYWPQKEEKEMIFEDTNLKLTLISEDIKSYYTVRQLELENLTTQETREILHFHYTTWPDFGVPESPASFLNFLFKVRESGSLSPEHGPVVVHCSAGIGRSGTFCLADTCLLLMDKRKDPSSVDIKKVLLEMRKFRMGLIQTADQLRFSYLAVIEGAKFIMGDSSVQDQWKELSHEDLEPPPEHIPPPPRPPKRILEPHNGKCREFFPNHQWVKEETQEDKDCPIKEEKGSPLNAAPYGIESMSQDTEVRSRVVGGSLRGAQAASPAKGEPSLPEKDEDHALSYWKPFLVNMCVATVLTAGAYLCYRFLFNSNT
The assay is described as above. Format: biochemical. Particulars: for IC50: pNPP 2 mM, pH 7.0, 25° C., read-out: IC50, nM PTP1B. On the procedure:
as §1

Assay [3] addresses T1, TC-PTP. Nature of the assay: Degradation assay in HEK293 cells (immunoblotting). Format: cell-based. Further details: Degradation assay was conducted in HEK293 cells with 1 μM degrader and 24 hours incubation; endogenous in cells; host or cells: HEK293. The settings on record: 1 μM degrader, 24 hours, read-out: % Protein Degradation TC-PTP. As to the method:
(§2) HEK293. MIAPaCa-2, HepG2, U2OS, H116, MEF, B16F10, and MC38 cells, were grown in DMEM, while Jurkat and H358 cells were grown in RPMI 1640 supplemented with 10% fetal bovine serum, penicillin (50 units/mL), and streptomycin (50 μg/mL) in a 37° C. incubator containing 5% CO2. 20 ng/ml human (Biolegend #713906) or mouse (Biolegend #714006) Interferon-γ were used for JAK/STAT pathway stimulation.
(§3) Tissues or cultured cells were lysed with ice-cold lysis buffer (50 mM Tris (pH 8.0, 150 mM NaCl, 10% Glycerol, 1% Triton-X-100) supplied with phosphatase inhibitor (Bimake) and protease inhibitor mixture (Roche Applied Science). Equal amounts of protein were resolved by SDS-PAGE, transferred to nitrocellulose membrane, and subjected to immunoblotting. Antibodies used in this study include anti-following proteins: pSTAT1^Tyr701 (Cell Signaling Technology #9167, 1:3000), GAPDH (Cell Signaling Technology #97166, 1:5000), pJAK1^Tyr1034/1035 (Cell Signaling Technology #74129, 1:1000), pJAK2^Tyr1007/1008 (Cell Signaling Technology #3776, 1:1000), TC-PTP (Abcam #ab180764, 1:3000). PTP1B (Abcam #ab244207, 1:1500).
(§4) Degradation assay was conducted in HEK293 cells with 1 μM degrader and 24 hours incubation.
(§5) The degradation assay was conducted in HEK293 cells with 0.2 μM degrader and 16 hours incubation.
(Immunoblotting shows a protein as a band on a membrane.)

Assay [4] concerns the target T2, PTP1B. Nature of the assay: Degradation assay in HEK293 cells (immunoblotting). Format: cell-based. Further details: Degradation assay was conducted in HEK293 cells with 1 μM degrader and 24 hours incubation; endogenous in cells; host or cells: HEK293. Particulars: 1 μM degrader, 24 hours. As to the method: as §2, §3, §4, §5
In assay [5] the target is T1, TC-PTP. Nature of the assay: Degradation assay in HEK293 cells (immunoblotting). Format: cell-based. Further details: endogenous in cells; host or cells: HEK293. Particulars: 0.2 μM degrader, 16 hours, read-out: % Protein Degradation TC-PTP. On the procedure:
as §2, §3, §4, §5

For assay [6], the target named is T2, PTP1B. Nature of the assay: Degradation assay in HEK293 cells (immunoblotting). Format: cell-based. Further details: endogenous in cells; host or cells: HEK293. The settings on record: 0.2 μM degrader, 16 hours. On the procedure:
as §2, §3, §4, §5

Turning to `COc1cc(CC(=O)N[C@@H](Cc2ccccc2)C(=O)N[C@@H](Cc2ccc(C(F)(F)P(=O)(O)O)cc2)C(=O)N[C@@H](CCCCNC(=O)c2ccc(C)c(Br)c2)C(=O)NCCCCC(=O)N[C@@H](C(=O)N2C[C@@H](O)C[C@@H]2C(=O)NCc2ccc(-c3scnc3C)cc2)C(C)(C)C)ccc1O` [Compound 6, ((4-((S)-3-(((S)-6-(3-bromo-4-methylbenzamido)-1-((5-(((R)-1-((2R,4S)-4-hydroxy-2-((4-(4-methylthiazol-5-yl)benzyl)carbamoyl)pyrrolidin-1-yl)-3,3-dimethyl-1-oxobutan-2-yl)amino)-5-oxopentyl)amino)-1-oxohexan-2-yl)amino)-2-((S)-2-(2-(4-hydroxy-3-methoxyphenyl)acetamido)-3-phenylpropanamido)-3-oxopropyl)phenyl)difluoromethyl)phosphonic Acid] ({Phenylacetyl(4-OH,3-OMe)}-F[F2Pmp]K(Benzoyl(3-Br,4-Me))[Ava][dTle][dHyp]-{NHBn(4-(4-Me-thiazol-5-yl))}), the IC50 was 34.3 ± 14.8 nM in assay [1] and 29.4 ± 2.1 nM in assay [2]. In assay [3], the percent TC-PTP degradation at 1 µM stood at 58%. Besides, in assay [4], the “% Protein Degradation PTP1B” value was 53%.

With `COc1cc(CC(=O)N[C@@H](Cc2ccccc2)C(=O)N[C@@H](Cc2ccc(C(F)(F)P(=O)(O)O)cc2)C(=O)N[C@@H](CCCCNC(=O)c2ccc(C)c(Br)c2)C(=O)NCCCCCCC(=O)N[C@@H](C(=O)N2C[C@@H](O)C[C@@H]2C(=O)NCc2ccc(-c3scnc3C)cc2)C(C)(C)C)ccc1O` [Compound 10, ((4-((S)-3-(((S)-6-(3-bromo-4-methylbenzamido)-1-((7-(((R)-1-((2R,4S)-4-hydroxy-2-((4-(4-methylthiazol-5-yl)benzyl)carbamoyl)pyrrolidin-1-yl)-3,3-dimethyl-1-oxobutan-2-yl)amino)-7-oxoheptyl)amino)-1-oxohexan-2-yl)amino)-2-((S)-2-(2-(4-hydroxy-3-methoxyphenyl)acetamido)-3-phenylpropanamido)-3-oxopropyl)phenyl)difluoromethyl)phosphonic Acid] ({Phenylacetyl(4-OH,3-OMe)}-F[F2Pmp]K(Benzoyl(3-Br,4-Me))[Ahp][dTle][dHyp]-{NHBn(4-(4-Me-thiazol-5-yl))}), the IC50 stood at 6.8 ± 0.6 nM in assay [1] and 7.4 ± 0.6 nM in assay [2]. The percent TC-PTP degradation at 1 µM in assay [3] was found to be 69%. In addition, the “% Protein Degradation PTP1B” value in assay [4] stood at 61%.

As for `COc1cc(CC(=O)N[C@@H](Cc2ccccc2)C(=O)N[C@@H](Cc2ccc(C(F)(F)P(=O)(O)O)cc2)C(=O)N[C@@H](CCCCNC(=O)c2ccc(C)c(Br)c2)C(=O)NCCCCCCCCCC(=O)N[C@H](C(=O)N2C[C@H](O)C[C@H]2C(=O)NCc2ccc(-c3scnc3C)cc2)C(C)(C)C)ccc1O` [Compound 14, ((4-((S)-3-(((S)-6-(3-bromo-4-methylbenzamido)-1-((10-(((S)-1-((2S,4R)-4-hydroxy-2-((4-(4-methylthiazol-5-yl)benzyl)carbamoyl)pyrrolidin-1-yl)-3,3-dimethyl-1-oxobutan-2-yl)amino)-10-oxodecyl)amino)-1-oxohexan-2-yl)amino)-2-((S)-2-(2-(4-hydroxy-3-methoxyphenyl)acetamido)-3-phenylpropanamido)-3-oxopropyl)phenyl)difluoromethyl)phosphonic Acid] ({Phenylacetyl(4-OH,3-OMe)}-F[F2Pmp]K(Benzoyl(3-Br,4-Me))[NH(CH2)9CO][Tle][Hyp]-{NHBn(4-(4-Me-thiazol-5-yl))}), the results for the IC50 in assay [1] and in assay [2] were 6.8 ± 0.3 nM and 10.3 ± 0.6 nM, respectively. Besides, in assay [3], the percent TC-PTP degradation at 1 µM is 62%. Moreover, the “% Protein Degradation PTP1B” value in assay [4] amounted to 38%.

Consider `COc1cc(CC(=O)N[C@@H](Cc2ccccc2)C(=O)N[C@@H](Cc2ccc(C(F)(F)P(=O)(O)O)cc2)C(=O)N[C@@H](CCCCNC(=O)c2ccc(C)c(Br)c2)C(=O)N2CCC(CCC(=O)N[C@H](C(=O)N3C[C@H](O)C[C@H]3C(=O)NCc3ccc(-c4scnc4C)cc3)C(C)(C)C)CC2)ccc1O` [Compound 58, ((4-((S)-3-(((S)-6-(3-bromo-4-methylbenzamido)-1-(4-(3-(((S)-1-((2S,4R)-4-hydroxy-2-((4-(4-methylthiazol-5-yl)benzyl)carbamoyl)pyrrolidin-1-yl)-3,3-dimethyl-1-oxobutan-2-yl)amino)-3-oxopropyl)piperidin-1-yl)-1-oxohexan-2-yl)amino)-2-((S)-2-(2-(4-hydroxy-3-methoxyphenyl)acetamido)-3-phenylpropanamido)-3-oxopropyl)phenyl)difluoromethyl)phosphonic Acid] ({Phenylacetyl(4-OH,3-OMe)}-F[F2Pmp]K(Benzoyl(3-Br,4-Me))[X3][Tle][Hyp]-{NHBn(4-(4-Me-thiazol-5-yl))}), for which the percent TC-PTP degradation at 0.2 µM in assay [5] was 32%. In addition, the “% Protein Degradation PTP1B” value in assay [6] came to 26%. In addition, the IC50 in assay [1] amounted to 8 ± 0.7 nM; in assay [2], 8.9 ± 0.5 nM.

Consider `COc1cc(CC(=O)N[C@@H](Cc2ccccc2)C(=O)N[C@@H](Cc2ccc(C(F)(F)P(=O)(O)O)cc2)C(=O)N[C@@H](CCCCNC(=O)c2ccc(C)c(Br)c2)C(N)=O)ccc1O` [Example 7, ((4-((S)-3-(((S)-1-amino-6-(3-bromo-4-methylbenzamido)-1-oxohexan-2-yl)amino)-2-((S)-2-(2-(4-hydroxy-3-methoxyphenyl)acetamido)-3-phenylpropanamido)-3-oxopropyl)phenyl)difluoromethyl)phosphonic Acid], for which the percent TC-PTP degradation at 0.2 µM in assay [5] came to 0%. For the same compound, the Ki in assay [1] (TC-PTP catalyzed pNPP hydrolysis) was 3.6 nM; in assay [2] (PTP1B-catalyzed pNPP hydrolysis), 2.4 nM. Besides, the IC50 is 7.1 ± 0.4 nM in assay [1] and 4.7 ± 0.3 nM in assay [2]. The percent TC-PTP degradation at 1 µM in assay [3] is 0%.

What is called IC50 is the point on the concentration scale where inhibition reaches its midpoint. Broadly, the Ki is a measure of affinity in units of concentration, obtained from inhibition or displacement. High values mean a looser hold on the target, low ones a stronger hold on the target.
